For 18 compounds, Ki results are on record in patent publication US8486931B2, “Substituted oxindole compounds” (Abbott GmbH & Co. KG, priority 2007, dated 2013).

The test deals with T1, human vasopressin V1b receptor (Homo sapiens, UniProt P47901).
T1 construct: expressed in transfected cells; host or cells: CHO-K1 (cell line hV1b-3H2_CHO), membrane preparation
T1 sequence (P47901 1-424): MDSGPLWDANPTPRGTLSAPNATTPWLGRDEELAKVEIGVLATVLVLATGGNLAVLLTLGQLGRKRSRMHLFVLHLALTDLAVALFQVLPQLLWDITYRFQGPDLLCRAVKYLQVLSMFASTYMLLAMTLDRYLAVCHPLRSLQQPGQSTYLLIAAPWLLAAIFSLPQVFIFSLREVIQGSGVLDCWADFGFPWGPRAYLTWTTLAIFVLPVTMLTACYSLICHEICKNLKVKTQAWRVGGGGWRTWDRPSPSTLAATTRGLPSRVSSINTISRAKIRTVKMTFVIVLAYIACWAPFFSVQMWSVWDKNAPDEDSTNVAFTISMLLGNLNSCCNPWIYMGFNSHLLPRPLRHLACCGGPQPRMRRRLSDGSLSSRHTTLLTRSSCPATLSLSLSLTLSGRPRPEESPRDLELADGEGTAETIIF
Put plainly: Vasopressin V1b receptor binding assay. The conditions noted are these: membranes from CHO-K1 cells with stably expressed human V1b receptors, 1.5 nM 3H-AVP displacement; with more than one stereogenic center: the diastereomer with stronger affinity. The essentials: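 Membranes bearing human V1b receptor incubated 60 min at room temperature in 50 mM Tris, 10 mM MgCl2, 0.1% BSA, pH 7.4, 2% DMSO, triplicate.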
Broadly, the Ki is a dissociation constant, usually derived from enzyme kinetics or from competition with a known ligand. A low value points to a stronger hold on the target. As for `CCOc1ccccc1C1(N2CCN(c3ccncc3)CC2)C(=O)N(S(=O)(=O)c2cccc3cccnc23)c2ccc(C#N)cc21` (single isomer, unassigned; (+)) [Example 60, (+)-5-Cyano-3-(2-ethoxyphenyl)-3-(4-pyridin-4-ylpiperazin-1-yl)-1-(quinolin-8-sulfonyl)-2,3-dihydro-1H-indol-2-one], the Ki is < 10 nM.

For `CCOc1ccccc1C1(N2CCN(c3ccncc3)CC2)C(=O)N(S(=O)(=O)c2ccc(C)cn2)c2ccc(C#N)cc21` (single isomer, unassigned; (+)) [Example 61, (+)-5-Cyano-3-(2-ethoxyphenyl)-1-(5-methylpyridine-2-sulfonyl)-3-(4-pyridin-4-yl-piperazin-1-yl)-2,3-dihydro-1H-indol-2-one], the Ki was < 10 nM. For `CCOc1ccccc1C1(N2CCN(c3ccncc3)CC2)C(=O)N(S(=O)(=O)c2cccc3c(C)ccnc23)c2ccc(C#N)cc21` (single isomer, unassigned; (+)) [Example 63, (+)-5-Cyano-3-(2-ethoxyphenyl)-1-(4-methylquinoline-8-sulfonyl)-3-(4-pyridin-4-yl-piperazin-1-yl)-2,3-dihydro-1H-indol-2-one], the Ki is < 10 nM.

Regarding `CCOc1ccccc1C1(N2CCN(c3ccncc3)CC2)C(=O)N(S(=O)(=O)c2ccc(OC)cn2)c2ccc(C#N)cc21` (single isomer, unassigned; (+)) [Example 64, (+)-5-Cyano-3-(2-ethoxyphenyl)-1-(5-methoxypyridine-2-sulfonyl)-3-(4-pyridin-4-yl-piperazin-1-yl)-2,3-dihydro-1H-indol-2-one], the Ki was < 10 nM. For `CCOc1ccccc1C1(N2CCN(c3ccncc3)CC2)C(=O)N(S(=O)(=O)c2ccc(OCC)c3cccnc23)c2ccc(C#N)cc21` (single isomer, unassigned; (+)) [Example 67, (+)-5-Cyano-3-(2-ethoxyphenyl)-1-(5-ethoxyquinoline-8-sulfonyl)-3-(4-pyridin-4-yl-piperazin-1-yl)-2,3-dihydro-1H-indol-2-one], the inhibition constant (Ki) lay within 10 to 50 nM. Take `CCOc1ccc(OC)cc1C1(N2CCN(C3CCNCC3)CC2)C(=O)N(S(=O)(=O)c2ccc(OC)cn2)c2ccc(C#N)cc21` (single isomer, unassigned; (+)) [Example 140, (+)-5-Cyano-3-(2-ethoxy-5-methoxy-phenyl)-1-(5-methoxy-pyridine-2-sulfonyl)-3-(4-piperidin-4-yl-piperazin-1-yl)-2,3-dihydro-1H-indol-2-one]: the Ki was < 10 nM. To `CCOc1ccc(OC)cc1C1(N2CCN(C3CCN(C)CC3)CC2)C(=O)N(S(=O)(=O)c2ccc(OC)cn2)c2ccc(C#N)cc21` (single isomer, unassigned; (+)) [Example 141, (+)-5-Cyano-3-(2-ethoxy-5-methoxy-phenyl)-1-(5-methoxy-pyridine-2-sulfonyl)-3-[4-(1-methyl-piperidin-4-yl)-piperazin-1-yl]-2,3-dihydro-1H-indol-2-one] belongs 10 to 50 nM; to `CCOc1cc(OC)ccc1C1(N2CCC(N3CCNCC3)CC2)C(=O)N(S(=O)(=O)c2ccc(OC)cn2)c2ccc(C#N)cc21` (single isomer, unassigned; (+)) [Example 142, (+)-5-Cyano-3-(2-ethoxy-4-methoxy-phenyl)-1-(5-methoxy-pyridine-2-sulfonyl)-3-(4-piperazin-1-yl-piperidin-1-yl)-2,3-dihydro-1H-indol-2-one], < 10 nM. `CCOc1ccc(OC)cc1C1(N2CCN(c3ccnc(C(C)C)c3)CC2)C(=O)N(S(=O)(=O)c2ccc(OC)cn2)c2ccc(C#N)cc21` (single isomer, unassigned; (+)) [Example 143, (+)-5-Cyano-3-(2-ethoxy-5-methoxy-phenyl)-3-[4-(2-isopropyl-pyridin-4-yl)-piperazin-1-yl]-1-(5-methoxy-pyridine-2-sulfonyl)-2,3-dihydro-1H-indol-2-one]: the Ki was < 10 nM. To `CCOc1nc(Cl)ccc1C1(N2CCN(c3ccnc(C)c3)CC2)C(=O)N(S(=O)(=O)c2ccc(OC)cn2)c2ccc(C#N)cc21` (single isomer, unassigned; (+)) [Example 151, (+)-5-Cyano-3-(6-chloro-2-ethoxy-pyridin-3-yl)-1-(5-methoxy-pyridine-2-sulfonyl)-3-[4-(2-methyl-pyridin-4-yl)-piperazin-1-yl]-2,3-dihydro-1H-indol-2-one] belongs < 10 nM; to `CCOc1ccc(OC)cc1C1(N2CCC(N3CCNCC3)CC2)C(=O)N(S(=O)(=O)c2ccc(OC)cn2)c2ccc(C#N)cc21` (single isomer, unassigned; (+)) [Example 156, (+)-5-Cyano-3-(2-ethoxy-5-methoxy-phenyl)-1-(5-methoxy-pyridine-2-sulfonyl)-3-(4-piperazin-1-yl-piperidin-1-yl)-2,3-dihydro-1H-indol-2-one], 10 to 50 nM; to `CCOc1ccc(OC)cc1C1(N2CCN(c3ccncc3)CC2)C(=O)N(S(=O)(=O)c2ccc(OC)c3cccnc23)c2ccc(C#N)cc21` (single isomer, unassigned; (+)) [Example 162, (+)-5-Cyano-3-(2-ethoxy-5-methoxy-phenyl)-1-(5-methoxy-quinoline-8-sulfonyl)-3-(4-pyridin-4-yl-piperazin-1-yl)-2,3-dihydro-1H-indol-2-one], 10 to 50 nM. For `CCOc1ccc(OC)cc1C1(N2CCN(c3ccncc3)CC2)C(=O)N(S(=O)(=O)c2ccc(OC)cn2)c2ccc(C#N)cc21` (single isomer, unassigned; (+)) [Example 163, (+)-5-Cyano-3-(2-ethoxy-5-methoxy-phenyl)-1-(5-methoxy-pyridine-2-sulfonyl)-3-(4-pyridin-4-yl-piperazin-1-yl)-2,3-dihydro-1H-indol-2-one] the value was < 10 nM.

Turning to `CCOc1ccc(OC)cc1C1(N2CCN(c3ccnc(C)c3)CC2)C(=O)N(S(=O)(=O)c2ccc(OC)cn2)c2ccc(C#N)cc21` (single isomer, unassigned; (+)) [Example 164, (+)-5-Cyano-3-(2-ethoxy-5-methoxy-phenyl)-1-(5-methoxy-pyridine-2-sulfonyl)-3-[4-(2-methyl-pyridin-4-yl)-piperazin-l-yl]-2,3-dihydro-1H-indol-2-one], the Ki was < 10 nM.

Turning to “(+)-5-Cyano-3-(2-ethoxy-5-methoxy-phenyl)-1-(5-methoxy-pyridine-2-sulfonyl)-3-[4-(4-methyl-piperazin-1-yl)-piperidin-1-yl]-2,3-dihydro-1H-indol-2-one [Example 158]”, the Ki was < 10 nM.

Turning to “(+)-5-Cyano-3-(6-chloro-2-ethoxy-pyridin-3-yl)-1-(5-methoxy-pyridine-2-sulfonyl)-3-[4-(2-methyl-pyridin-4-yl)-piperazin-1-yl]-2,3-dihydro-1H-indol-2-one [Example 152]”, the Ki is < 10 nM. On to “(±)-5-Cyano-3-(2-ethoxy-5-methoxyphenyl)-3-[4-(2-ethylpyridin-4-yl)piperazin-1-yl]-1-(quinoline-8-sulfonyl)-2,3-dihydro-1H-indol-2-one [Example 58]”, for which the Ki was < 10 nM. For “(±)-5-Cyano-3-(6-chloro-2-ethoxypyridin-3-yl)-1-(2,4-dimethoxybenzenesulfonyl)-3-[4-(2-methylpyridin-4-yl)piperazin-1-yl]-2,3-dihydro-1H-indol-2-one [Example 28]” the value was 10 to 50 nM.
